Test system: platelet rich plasma (PRP)
Experiment: 96 well plate light transmission platelet aggregation assay, dose response to multiple agonists
Type: cell-based
Conditions: for platelet reactivity induced by the agonist (dose response curve): PRP of an inflamed rheumatoid arthritis patient, compared to the normal population (n=50), FIG. 3
Description: Healthy subjects who had not taken any antiplatelet medication in the 14 days prior to the study were recruited. Subjects refrained from intensive exercise and tobacco use for 4 hours prior to early morning phlebotomy. Blood was drawn from the antecubital fossa. The first 5 ml taken was discarded to avoid unwanted platelet activation and the next 27 ml of blood was collected in 3 ml of 3.2% sodium citrate anticoagulant. This blood citrate mixture was then centrifuged at 150 g for 10 min to recover the supernatant platelet rich plasma (PRP). The platelet concentration was measured using a Sysmex KX 21N.
A 96 well black isoplate with clear bottoms was used. Agonists were arranged in rows of Row 1—Arachidonic Acid (AA), Row 2—Collagen, Row 3—ADP, Row 4—Epinephrine, Row 5—Thrombin related activated peptide (TRAP) and Row 6 as a control row containing 4 wells of PRP and 4 wells of Platelet Poor Plasma (PPP). The remaining 6 rows maybe used for additional agonists or specific peptides as required.
Buffer A (6 mM Dextrose, 130 mM NaCl, 9 mM NaHCO3, 10 mM trisodium citrate, 10 mM Tris Base, 3 mM KCl, 0.81 mM KH2PO4, and 0.9 mM MgCl26H2O [pH7.4]) was added to wells 2-8 on each row using a 12 channel pipette. Row 1—10 μl of buffer A was inserted into well 2. Then 20 μl of buffer A was added to each of the wells 3-8 inclusive. Then 50 μl of AA (500 mg/ml stock) was inserted into well 1. 30 μl of AA was removed from well 1 and mixed with buffer A in well 2. 20 μl of the AA/buffer A was removed from well 2 and mixed in well 3. 20 μl is then removed from well 3 and mixed in well 4. This is repeated throughout the row up to and including well 8 with 20 μl left over and discarded. Row 2—Collagen (1.9 mg.ml stock) same process as Row 1. Row 3 & 5 ADP (Row 3) and TRAP (Row 5), wells 2-8 had 20 μl of buffer A placed into each. A quantity of 40 μl of ADP (200 μM stock) was placed into well 1. 20 μl of agonist was removed from well 1 and placed into well 2 where it was then mixed thoroughly with buffer A. This same process was then repeated across the plate with 20 μl left over after well 8. This was then discarded. The same process is repeated for Row 5—TRAP (200 μM stock). […]
The plate is then placed into a Wallac Victor 3 plate reader. The plate is read at time zero (T0) at absorbance 572 nm. […] T3 (3 minutes) read is taken and then shaking recommences until T9 (9 minutes) read. Further reads are taken at T15 (15 minutes) and T18 (18 minutes) with shaking in between each time-point. […]
The data is then normalised from the PPP and PRP absorbance values which represent minimum and maximum aggregation. […]

Nc1ncnc2c1ncn2[C@@H]1O[C@H](COP(=O)(O)OP(=O)(O)O)[C@@H](O)[C@H]1O [ADP]
platelet reactivity induced by the agonist (dose response curve): excessive platelet reactivity

CCCCC/C=C\C/C=C\C/C=C\C/C=C\CCCC(=O)O [Arachidonic Acid]
platelet reactivity induced by the agonist (dose response curve): excessive platelet reactivity

CNC[C@H](O)c1ccc(O)c(O)c1 [Epinephrine]
platelet reactivity induced by the agonist (dose response curve): excessive platelet reactivity

CC(=O)Oc1ccccc1C(=O)O [aspirin (soluble), aspirin]
inhibition of the COX pathway, arachidonic acid dose response curve (same male, visit 2, 4 weeks later, aspirin (soluble) 150 mg with clopidogrel 75 mg once daily, FIG. 7): clearly inhibited

Reference: patent US20100137161A1, “METHOD OF GENERATING A PLATELET […] FOR AN INDIVIDUAL” (ROYAL COLLEGE OF SURGEONS IN IRELAND, priority 2006, published 2010)
